Data reported in patent US11219650B2, “Agent for preventing or treating small intestinal injury induced by specific NSAID and PPI” (priority 2018, dated 2022).

How the values were obtained:
small intestinal injury [1] = conditions: Non-Patent Literature 1 (Wallace et al., Gastroenterology 2011); cited from earlier work
small intestinal injury [2] = experiment: Comparative Example 1: degree of small intestinal injury induction by sulindac and omeprazole, rate of change of hematocrit values; conditions: rats; sulindac as NSAID + omeprazole as PPI; no bifidobacteria; FIG. 10
Description: (§1) The animals were allowed to free access to a solid diet (CE-2, CLEA Japan, Inc.) and tap water.
(§2) At the start of the experiments, the blood was collected from the tail vein with hematocrit capillary tubes (Thermo Fisher Scientific K.K.) to measure hematocrit values. […] After grouping, the body weight of the animals was measured for nine days, and one of the PPIs (10 mg/kg) was intraperitoneally administered twice a day. For the normal group and the NSAID alone administration groups, vehicle was administered instead of the PPIs. From day 6 of PPI administration, one of the NSAIDs (10 mg/kg) was administered by oral gavage twice a day. For the normal group, vehicle was administered instead of the NSAIDs. For the bifidobacteria administration groups, one strain of the bacteria (1×10^9 cfu (colony forming unit)/animal) was further administered by oral gavage once a day. For the other groups, physiological saline was administered instead of the bifidobacteria. On the final day of the experiments, the hematocrit values were measured again, and the difference between the start and the end of the experiments was calculated and expressed as the rate of change of the hematocrit values. In aspirin administration experiments, the animals were fed with a high-fructose diet (EPS EKISHIN Co., Ltd) from the starting day of PPI administration.
(§3) Bifidobacteria administration was not performed. […]

small intestinal injury [3] = conditions: rat, in vivo
Description: as §1, §2, §3

[4] = test system: small intestinal injury induced by NSAID and PPI; experiment: Test 1: inhibitory effects on NSAID and PPI induced small intestinal injury, rate of change of hematocrit values; format: in vivo, Wister male rats; conditions: rats, bacteria 1×10^9 cfu/animal oral once a day
Description: Frozen stocks of the following bacterial strains were statically cultured in GAM broth at 37° C. for 24 hours: the Bifidobacterium bifidum G9-1 strain (B. bifidum G9-1) (Accession No. NITE BP-817), the Bifidobacterium longum reference strain JCM (registered trademark) 1217^T (B. longum JCM 1217) (purchased from Japan Collection of Microorganisms (JCM), RIKEN BioResource Research Center), and the Bifidobacterium infantis reference strain JCM 1222T (B. infantis JCM 1222) (purchased from JCM). Each of the bacterial liquid cultures was inoculated into fresh GAM broth at a ratio (by volume) of liquid culture to GAM broth of 1:100, and statically cultured at 37° C. for 24 hours. […]
Small intestinal injury was induced by a combination of (S)-(+)-2-(6-methoxy-2-naphthyl)propionic acid (naproxen, Tokyo Chemical Industry Co., Ltd., dissolved in a 5% NaHCO3 solution; also called NAP) and omeprazole (omz) or by a combination of ibuprofen (Ibu) and omeprazole (omz). […] That is, the effect of B. bifidum on recovery from small intestinal injury induced by ibuprofen and omeprazole when compared with the effect of B. bifidum on recovery from small intestinal injury induced by naproxen and omeprazole was calculated by the following formula, taking the latter effect as 1.

COc1ccc2cc([C@H](C)C(=O)O)ccc2c1 [Naproxen, (S)-(+)-2-(6-methoxy-2-naphthyl)propionic acid]
induction of small intestinal injury by naproxen in combination with omeprazole (small intestinal injury [1]): induce small intestinal injury

CC1=C(CC(=O)O)c2cc(F)ccc2/C1=C\c1ccc([S+](C)[O-])cc1 (centres unmarked) [sulindac]
reduction of the hematocrit values induced by sulindac in combination with omeprazole (small intestinal injury [2]): did not induce reduction of the hematocrit values
induction of small intestinal injury by combination of sulindac and omeprazole (small intestinal injury [3]): does not induce small intestinal injury

Bifidobacterium longum
inhibitory effect on small intestinal injury (hematocrit reduction) induced by ibuprofen and lansoprazole ([4]; ibuprofen 10 mg/kg oral + lansoprazole 10 mg/kg i.p. twice a day, FIG. 7): higher inhibitory effect
inhibitory effect on small intestinal injury (hematocrit reduction) induced by ibuprofen and omeprazole ([4]; ibuprofen 10 mg/kg oral + omeprazole 10 mg/kg i.p. twice a day, FIG. 4): higher inhibitory effect
